# Laboratory results from ChEMBL document CHEMBL4138241, “Synthesis and in vitro evaluation of novel substituted isatin-propylene-1H-1,2,3-triazole-4-methylene-moxifloxacin hybrids for their anti-mycobacterial activities” (Eur J Med Chem, 2018).
# Columns and labels:
# Type in all cases: functional
# [1] = system: Mycobacterium tuberculosis; experiment: Antimycobacterial activity against isoniazid/rifampicin/ethambutol-resistant Mycobacterium tuberculosis after 3 days by rapid direct susceptibility test; conditions: 72 h
# [2] = system: Mycobacterium tuberculosis; experiment: Potency index, ratio of rifampicin MIC to compound MIC for antimycobacterial activity against isoniazid/rifampicin/ethambutol-resistant Mycobacterium tuberculosis
# [3] = system: Mycobacterium tuberculosis; experiment: Potency index, ratio of moxifloxacin MIC to compound MIC for antimycobacterial activity against isoniazid/rifampicin/ethambutol-resistant Mycobacterium tuberculosis
# [4] = system: Mycobacterium tuberculosis; experiment: Potency index, ratio of isoniazid MIC to compound MIC for antimycobacterial activity against isoniazid/rifampicin/ethambutol-resistant Mycobacterium tuberculosis
SMILES,MIC [1],also measured
COc1c(N2C[C@H]3CCCN(Cc4cn(CCCN5C(=O)/C(=N/O)c6cc(C)ccc65)nn4)[C@H]3C2)c(F)cc2c(=O)c(C(=O)O)cn(C3CC3)c12,2 µg/mL,
COc1c(N2C[C@H]3CCCN(Cc4cn(CCCN5C(=O)C(=O)c6cc(C)ccc65)nn4)[C@H]3C2)c(F)cc2c(=O)c(C(=O)O)cn(C3CC3)c12,1 µg/mL,
CO/N=C1/C(=O)N(CCCn2cc(CN3CCC[C@@H]4CN(c5c(F)cc6c(=O)c(C(=O)O)cn(C7CC7)c6c5OC)C[C@@H]43)nn2)c2ccccc21,0.25 µg/mL,
CCO/N=C1/C(=O)N(CCCn2cc(CN3CCC[C@@H]4CN(c5c(F)cc6c(=O)c(C(=O)O)cn(C7CC7)c6c5OC)C[C@@H]43)nn2)c2ccccc21,0.25 µg/mL,
COc1c(N2C[C@H]3CCCN(Cc4cn(CCCN5C(=O)C(=O)c6ccccc65)nn4)[C@H]3C2)c(F)cc2c(=O)c(C(=O)O)cn(C3CC3)c12,1 µg/mL,
CO/N=C1/C(=O)N(CCCn2cc(CN3CCC[C@@H]4CN(c5c(F)cc6c(=O)c(C(=O)O)cn(C7CC7)c6c5OC)C[C@@H]43)nn2)c2ccc(F)cc21,0.06 µg/mL,Ratio [2]: 2 - 2048; Ratio [3]: 2 - 2048; Ratio [4]: 2 - 2048
CCO/N=C1/C(=O)N(CCCn2cc(CN3CCC[C@@H]4CN(c5c(F)cc6c(=O)c(C(=O)O)cn(C7CC7)c6c5OC)C[C@@H]43)nn2)c2ccc(F)cc21,0.12 µg/mL,
COc1c(N2C[C@H]3CCCN(Cc4cn(CCCN5C(=O)C(=O)c6cc(F)ccc65)nn4)[C@H]3C2)c(F)cc2c(=O)c(C(=O)O)cn(C3CC3)c12,0.25 µg/mL,
COc1c(N2C[C@H]3CCCN(Cc4cn(CCCN5C(=O)/C(=N/O)c6ccccc65)nn4)[C@H]3C2)c(F)cc2c(=O)c(C(=O)O)cn(C3CC3)c12,1 µg/mL,
COc1c(N2C[C@H]3CCCN(Cc4cn(CCCN5C(=O)/C(=N/O)c6cc(F)ccc65)nn4)[C@H]3C2)c(F)cc2c(=O)c(C(=O)O)cn(C3CC3)c12,0.25 µg/mL,
CO/N=C1/C(=O)N(CCCn2cc(CN3CCC[C@@H]4CN(c5c(F)cc6c(=O)c(C(=O)O)cn(C7CC7)c6c5OC)C[C@@H]43)nn2)c2ccc(C)cc21,0.5 µg/mL,
CCO/N=C1/C(=O)N(CCCn2cc(CN3CCC[C@@H]4CN(c5c(F)cc6c(=O)c(C(=O)O)cn(C7CC7)c6c5OC)C[C@@H]43)nn2)c2ccc(C)cc21,0.25 µg/mL,
NNC(=O)c1ccncc1 [ISONIAZID],> 128 µg/mL,
COc1c(N2C[C@@H]3CCCN[C@@H]3C2)c(F)cc2c(=O)c(C(=O)O)cn(C3CC3)c12 [MOXIFLOXACIN],0.12 µg/mL,
CO[C@H]1/C=C/O[C@@]2(C)Oc3c(C)c(O)c4c(O)c(c(/C=N/N5CCN(C)CC5)c(O)c4c3C2=O)NC(=O)/C(C)=C\C=C\[C@H](C)[C@H](O)[C@@H](C)[C@@H](O)[C@@H](C)[C@H](OC(C)=O)[C@@H]1C [RIFAMPIN],32 µg/mL,
